Key:
[1] = in vivo, iv
E. coli = conditions: cited from earlier work
Pseudomonas aeruginosa = conditions: cited from earlier work
Staphylococcus aureus = conditions: cited from earlier work
Candida albicans = conditions: cited from earlier work
Aspergillus niger = conditions: cited from earlier work

Molecule | maximum tolerated dose [1] [mg/kg] | Minimum Inhibitory Concentration (MIC) (E. coli) [µg/mL] | Minimum Inhibitory Concentration (MIC) (Pseudomonas aeruginosa) [µg/mL] | Minimum Inhibitory Concentration (MIC) (Staphylococcus aureus) [µg/mL] | Minimum Inhibitory Concentration (MIC) (Candida albicans) [µg/mL] | Minimum Inhibitory Concentration (MIC) (Aspergillus niger) [µg/mL]
4,4′-trimethylene dipiperidine bispropanoic acid-co-1,3-diamino propane | ~40 | – | – | – | – | –
C[CH2][Hg][S]c1ccccc1C(=O)[O-].[Na+] [thimerosal] | – | 4 to 8 | 4 to 8 | 0.2 | 32 | 128
